# Measured values reported in patent EP1295874A2, “Retroviral protease inhibiting compounds” (Abbott Laboratories, priority 1995, dated 1997).
# What was measured:
# [1] = tested on: HIVIIIB; experiment: Antiviral activity (anti-HIV activity) in MT4 cells, MTT readout; assay type: cell-based; settings: Human immunodeficiency virus 1, MT4, 120 h, read-out: IC50 (µM, 0% plasma)
# Text: (§1) The anti-HIV activity of the compound of the invention can be determined in MT4 cells according to the following procedure. MT4 cells were infected with cell-free supernatant of HIVIIIB (previously frozen with known 50% tissue culture infectious dose (TCID50) at 0.003 multiplicity of infection (MOI) for one hour. After one hour infection, cells were washed twice to remove residual viruses, resuspended in culture media and seeded into 96-well tissue culture plates at 1x10^4 cells per well with various half-log dilutions of compounds. Uninfected cells are included as toxicity and cell controls. RPMI 1640 media (Gibco ) with 10% fetal bovine serum were used as culture media. Various concentrations of human serum (Sigma) 50%, 25% and 12.5% were added to culture media resulting in final concentration of 60%, 35% and 22.5% total serum. All assay plates were incubated in 37 deg. cent. incubator for 5 days. MTT (sigma, 5 mg/ml stock in PBS) was added to all wells at 25 ul per well, incubate for 4 hours. 20%SDS with 0.02 N HCl in water was added at 50 ul per well to lyse cellls. Plates incubated overnight for complete lyses were read on a microtitre plate reader at 570/650 nm wavelengths to determine cell optical density (O.D.). Raw data were analysed for percent inhibition by the following formula: (O.D. test well - O.D. virus control)/(O.D. cell control -O.D. virus control)x100 [formula] The 50% effective concentration (EC50) was calculated by the median effect equation (Chou, 1975,Proc. Int. Cong. Pharmacol. 6th p. 619) to determine the efficacy of compound. The 50% lethal concentration (LC50) was calculated using uninfected MT4 cells.
# (§2) Under these conditions, the following data were obtained (n = 4 duplicate determinations: Table 2
# [2] = molecular target: T1, HIV protease (Human immunodeficiency virus type 1 group M subtype B, UniProt P04585); experiment: Fluorogenic Assay for Screening Inhibitors of HIV Protease; assay type: biochemical; settings: read-out: Percent Inhibition; for inhibition at 0.0005 µM: Inhibitor Concentration 0.5 nanomolar
# T1 construct: HIV protease consists of two identical subunits, each of which has 99 amino acid residues
# Protocol: The inhibitory potency of the compound of the invention can be determined by the following method.
# The compound of the invention is dissolved in DMSO and a small aliquot further diluted with DMSO to 100 times the final concentration desired for testing. The reaction is carried out in a 6 X 50 mm tube in a total volume of 300 microliters. The final concentrations of the components in the reaction buffer are: 125 mM sodium acetate, 1 M sodium chloride, 5 mM dithiothreitol, 0.5 mg/ml bovine serum albumin, 1.3 µM fluorogenic substrate, 2% (v/v) dimethylsulfoxide, pH 4.5. After addition of inhibitor, the reaction mixture is placed in the fluorometer cell holder and incubated at 30°C for several minutes. The reaction is initiated by the addition of a small aliquot of cold HIV protease. The fluorescence intensity (excitation 340 nm, emmision 490 nM) is recorded as a function of time. The reaction rate is determined for the first six to eight minutes. The observed rate is directly proportional to the moles of substrate cleaved per unit time. The percent inhibition is 100 X (1 - (rate in presence of inhibitor)/(rate in absence of inhibitor)).
# Fluorogenic substrate: Dabcyl-Gaba-Ser-Gln-Asn-Tyr-Pro-lle-Val-Gln-EDANS wherein DABCYL = 4-(4-dimethylamino-phenyl)azobenzoic acid, Gaba = γ-aminobutyric acid, and EDANS = 5-((2-aminoethyl)amino)-naphthalene-1-sulfonic acid.
# [3] = 50% lethal concentration in uninfected MT4 cells (MTT); assay type: cell-based; settings: human, read-out: LC50
# Text: as §1, §2
smiles,measurement,setting,value
"Cc1ccnc(C)c1OCC(=O)N[C@@H](Cc1ccccc1)[C@@H](O)C[C@H](Cc1ccccc1)NC(=O)[C@H](C(C)C)N1CCNC1=O [Example 15, (2S,3S,5S)-2-(2,4-Dimethyl-pyridin-3-oxy-acetyl) amino-3-hydroxy-5-(2S-(1-imidazolidin-2-onyl)-3-methyl-butanoyl) amino-1,6-diphenylhexane]",IC50,[1],0.119 µM
same,inhibition at 0.0005 µM,[2],48%
same,CC50 at 120 h,[3],> 100 µM
"Cc1cccc(C)c1OCC(=O)N[C@@H](Cc1ccccc1)[C@@H](O)C[C@H](Cc1ccccc1)NC(=O)[C@H](C(C)C)N1CCCC1=O [Example 17C, (2S,3S,5S)-2-(2,6-Dimethylphenoxyacetyl) amino-3-hydroxy-5-(2S-(1-pyrrolidin-2-onyl)-3-methyl-butanoyl) amino-1,6-diphenylhexane]",IC50,[1],0.051 µM
same,inhibition at 0.0005 µM,[2],87.2%
same,CC50 at 120 h,[3],19 µM
"Cc1cccc(C)c1OCC(=O)N[C@@H](Cc1ccccc1)[C@@H](O)C[C@H](Cc1ccccc1)NC(=O)[C@H](C(C)C)N1CCOC1=O [Example 3C, (2S, 3S, 5S)-2-(2,6-Dimethylphenoxyacetyl) amino-3-hydroxy-5-[2S-(3-oxazolidin-2-onyl)-3-methyl-butanoyl] amino-1,6-diphenylhexane]",IC50,[1],0.025 µM
same,inhibition at 0.0005 µM,[2],86.9%
same,CC50 at 120 h,[3],49.5 µM
"Cc1cccc(C)c1OCC(=O)N[C@@H](Cc1ccccc1)[C@@H](O)C[C@H](Cc1ccccc1)NC(=O)[C@H](C(C)C)N1CCNNC1=O [Example 26H, (2S,3S,5S)-2-(2,6-Dimethylphenoxyacetyl) amino-3-hydroxy-5[2S-(4-aza-1-tetrahydro-pyrimid-2-onyl)-3-methyl-butanoyl]amino-1,6-diphenylhexane]",IC50,[1],0.015 µM
same,inhibition at 0.0005 µM,[2],94.6%
same,CC50 at 120 h,[3],33 µM
"Cc1cc(F)cc(C)c1OCC(=O)N[C@@H](Cc1ccccc1)[C@@H](O)C[C@H](Cc1ccccc1)NC(=O)[C@H](C(C)C)N1CCNC1=O [Example 12B, (2S,3S,5S)-2-(4-Fluoro-2,6-dimethylphenoxyacetyl) amino-3-hydroxy-5-(2S-(1-imidazolidin-2-onyl)-3-methyl-butanoyl) amino-1,6-diphenylhexane]",IC50,[1],0.093 µM
same,inhibition at 0.0005 µM,[2],76.8%
same,CC50 at 120 h,[3],19.1 µM
Cc1cccc(C)c1OCC(=O)N[C@@H](Cc1ccccc1)[C@@H](O)C[C@H](Cc1ccccc1)NC(=O)[C@@H](N1CCNC1=O)C(C)(C)C [Example 8],IC50,[1],0.019 µM
same,inhibition at 0.0005 µM,[2],55.6%
same,CC50 at 120 h,[3],17.8 µM
"Cc1cc(N)cc(C)c1OCC(=O)N[C@@H](Cc1ccccc1)[C@@H](O)C[C@H](Cc1ccccc1)NC(=O)[C@H](C(C)C)N1CCNC1=O [Example 10F, (2S,3S,5S)-2-(4-Amino-2,6-dimethylphenoxyacetyl) amino-3-hydroxy-5-(2S-(1-imidazolidin-2-onyl)-3-methyl-butanoyl) amino-1,6-diphenylhexane]",IC50,[1],0.047 µM
same,inhibition at 0.0005 µM,[2],81%
same,CC50 at 120 h,[3],92 µM
"Cc1ncnc(C)c1OCC(=O)N[C@@H](Cc1ccccc1)[C@@H](O)C[C@H](Cc1ccccc1)NC(=O)[C@H](C(C)C)N1CCNC1=O [Example 13B, (2S,3S,5S)-2-(4,6-Dimethylpyrimidin-5-oxy-acetyl) amino-3-hydroxy-5-(2S-(1-imidazolidin-2-onyl)-3-methyl-butanoyl) amino-1,6-diphenylhexane]",inhibition at 0.001 µM,[2]; Inhibitor Concentration 1.0 nanomolar,56.2%
"Cc1cccc(C)c1OCC(=O)N[C@@H](Cc1ccccc1)[C@@H](O)C[C@H](NC(=O)[C@H](C(C)C)N1CCCNC1=O)C(C)C [Example 27D, (2S,3S,5S)-2-(2,6-Dimethylphenoxyacetyl) amino-3-hydroxy-5-[2S-(1-tetrahydro-pyrimid-2-onyl)-3-methylbutanoyl]amino-1-phenyl-6-methylheptane]",IC50,[1],0.03 µM
same,inhibition at 0.0005 µM,[2],92.9%
same,CC50 at 120 h,[3],56.2 µM
"CC(C)[C@@H](C(=O)N[C@@H](Cc1ccccc1)C[C@H](O)[C@H](Cc1ccccc1)NC(=O)O[C@H]1CO[C@H]2OCC[C@H]21)N1CCNC1=O [Example 5, (2S,3S,5S)-2-[(3R,3aS,6aR)-Bis-tetrahydrofuranyloxy] amino-3-hydroxy-5-[2S-(1-imidazolidin-2-onyl)-3-methylbutanoyl] amino-1,6-diphenylhexane]",IC50,[1],0.368 µM
same,inhibition at 0.0005 µM,[2],80.8%
same,CC50 at 120 h,[3],> 100 µM
"CC(C)[C@@H](C(=O)N[C@@H](Cc1ccccc1)C[C@H](O)[C@H](Cc1ccccc1)NC(=O)O[C@@H]1CCS(=O)(=O)[C@@H]1C(C)C)N1CCCNC1=O [Example 22E, (2S,3S,5S)-2-(cis(±)-1,1-dioxo-2-isopropyl-3-tetrahydrothiophenoxy)amino-3-hydroxy-5-(2S-(1-tetrahydropyrimid-2-onyl)-3-methylbutanoyl)amino-1,6-diphenylhexane]",inhibition at 0.0005 µM,[2],71.8%
"Cc1ccnc(C)c1OCC(=O)N[C@@H](Cc1ccccc1)[C@@H](O)C[C@H](Cc1ccccc1)NC(=O)[C@@H](N1CCNC1=O)C(C)(C)C [Example 14D, (2S,3S,5S)-2-(2,4-Dimethyl-pyridin-3-oxy-acetyl) amino-3-hydroxy-5-(2S-(1-imidazolidin-2-onyl)-3,3-dimethylbutanoyl) amino-1,6-diphenylhexane]",IC50,[1],0.053 µM
same,inhibition at 0.0005 µM,[2],52.7%
same,CC50 at 120 h,[3],> 100 µM
"Cc1cccc(C)c1OCC(=O)N[C@@H](Cc1ccccc1)[C@@H](O)C[C@H](Cc1ccccc1)NC(=O)[C@H](C(C)C)N1CCNC(=O)C1=O [Example 29C, (2S,3S,5S)-2-(2,6-Dimethylphenoxyacetyl)amino-3-hydroxy-5-[2S-(1-piperazin-2,3-dionyl)-3-methylbutanoyl]amino-1,6-diphenylhexane]",IC50,[1],0.427 µM
same,inhibition at 0.0005 µM,[2],72.6%
same,CC50 at 120 h,[3],56 µM
"CC(C)[C@@H](C(=O)N[C@@H](Cc1ccccc1)C[C@H](O)[C@H](Cc1ccccc1)NC(=O)O[C@H]1CO[C@H]2OCC[C@H]21)N1CCN(C)C1=O [Example 4F, (2S,3S,5S)-2-[(3R, 3aS, 6aR)-Bis-tetrahydrofuranyloxy] amino-3-hydroxy-5-[2S-(3-methyl-1-imidazolidin-2-onyl)-3-methylbutanoyl] amino-1,6-diphenylhexane]",IC50,[1],0.101 µM
same,inhibition at 0.0005 µM,[2],49.7%
same,CC50 at 120 h,[3],> 100 µM
"CC(C)[C@@H](C(=O)N[C@@H](Cc1ccccc1)C[C@H](O)[C@H](Cc1ccccc1)NC(=O)OCc1cncs1)N1CCNC1=O [Example 6F, (2S,3S,5S)-2-(N-((5-Thiazolyl)methoxycarbonyl)amino)-5-((2S-(1-imidazolidin-2-onyl)-3-methyl-butanoyl)-amino)-3-hydroxy-1,6-diphenylhexane]",IC50,[1],0.193 µM
same,inhibition at 0.0005 µM,[2],61.4%
same,CC50 at 120 h,[3],> 100 µM
"Cc1cccc(C)c1CCC(=O)N[C@@H](Cc1ccccc1)[C@@H](O)C[C@H](Cc1ccccc1)NC(=O)[C@H](C(C)C)N1CCCNC1=O [Example 20D, (2S,3S,5S)-2-(3-(2,6-Dimethylphenyl)propanoyl) amino-3-hydroxy-5-(2S-(1-tetrahydropyrimidin-2-onyl)-3-methyl-butanoyl) amino-1,6-diphenylhexane]",IC50,[1],0.283 µM
same,CC50 at 120 h,[3],24.1 µM
"Cc1cccc(C)c1OCC(=O)N[C@@H](Cc1ccccc1)[C@@H](O)C[C@H](NC(=O)[C@H](C(C)C)N1CCC(=O)NC1=O)C(C)C [Example 28, (2S,3S,5S)-2-(2,6-Dimethylphenoxyacetyl) amino-3-hydroxy-5-[2S-(1-tetrahydro-pyrimid-2,4-dionyl)-3-methylbutanoyl]amino-1-phenyl-6-methylheptane]",IC50,[1],0.011 µM
same,inhibition at 0.0005 µM,[2],86.6%
same,CC50 at 120 h,[3],72.2 µM
"Cc1cccc(C)c1OCC(=O)N[C@@H](Cc1ccccc1)[C@@H](O)C[C@H](Cc1ccccc1)NC(=O)[C@H](C(C)C)n1ccc(=O)[nH]c1=O [Example 23C, (2S,3S,5S)-2-(2,6-Dimethylphenoxyacetyl) amino-3-hydroxy-5-(2S-(1-dihydropyrimid-2,4-dionyl)-3-methyl-butanoyl) amino-1,6-diphenylhexane]",inhibition at 0.0005 µM,[2],86%
